# Target: T1, MRB1590(10–668) (Trypanosoma brucei, UniProt Q57ZF2)
# T1 construct: gene Tb03.30P12.70; residues 10-668 (full length 668, 72 kDa); homodimer, ATP site formed by both subunits
# T1 sequence (Q57ZF2 10-668): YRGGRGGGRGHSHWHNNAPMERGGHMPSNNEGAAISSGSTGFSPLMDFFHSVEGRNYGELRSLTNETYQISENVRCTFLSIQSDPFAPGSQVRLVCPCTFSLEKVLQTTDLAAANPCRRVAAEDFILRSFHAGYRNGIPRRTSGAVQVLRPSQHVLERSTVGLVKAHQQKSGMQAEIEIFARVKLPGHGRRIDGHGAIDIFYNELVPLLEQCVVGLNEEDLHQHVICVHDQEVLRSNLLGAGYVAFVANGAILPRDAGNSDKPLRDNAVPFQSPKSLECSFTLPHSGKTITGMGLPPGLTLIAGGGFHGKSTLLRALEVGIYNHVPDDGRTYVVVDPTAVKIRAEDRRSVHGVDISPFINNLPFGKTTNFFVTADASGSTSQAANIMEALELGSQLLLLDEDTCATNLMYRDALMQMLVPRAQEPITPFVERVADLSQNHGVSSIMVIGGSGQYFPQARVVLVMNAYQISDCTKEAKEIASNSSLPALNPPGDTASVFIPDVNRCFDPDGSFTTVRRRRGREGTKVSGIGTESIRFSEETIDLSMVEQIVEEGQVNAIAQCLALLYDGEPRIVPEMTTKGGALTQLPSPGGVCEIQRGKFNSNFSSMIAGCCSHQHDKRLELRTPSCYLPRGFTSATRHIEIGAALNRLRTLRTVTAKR
# Experiment: ITC
# Type: binding
structure (smiles),measurement,value
Nc1ncnc2c1ncn2[C@@H]1O[C@H](COP(=O)(O)OP(=O)(O)NP(=O)(O)O)[C@@H](O)[C@H]1O [AMP-PNP],Kd,1270 ± 210 nM
Nc1ncnc2c1ncn2[C@@H]1O[C@H](COP(=O)(O)OP(=O)(O)O)[C@@H](O)[C@H]1O [ADP],Kd,885 ± 49 nM
